In brackets after ≈: the same amount, converted by molar mass.
What was measured:
Pseudomonas = details: in words; cited from earlier work
[1] = test system: various gram-positive and gram-negative bacteria; details: in words; cited from earlier work
[2] = test system: Staphylococcus aureus 209P; assay: Minimal inhibitory concentration by agar dilution method; type: cell-based
Escherichia coli NIHJ = assay: as above; type: cell-based
Proteus mirabilis GN2425 = assay: as above; type: cell-based
Proteus vulgaris HX19 = assay: as above; type: cell-based
[3] = test system: Klebsiella pneumoniae 602; assay: as above; type: cell-based
[4] = test system: Pseudomonas aeruginosa 104; assay: as above; type: cell-based

Row | SMILES | antimicrobial activity against Pseudomonas (Pseudomonas) | growth inhibition / antimicrobial activity against gram-positive and gram-negative bacteria [1] | MIC [2] [µg/mL] | MIC (Escherichia coli NIHJ) [µg/mL] | MIC (Proteus mirabilis GN2425) [µg/mL] | MIC (Proteus vulgaris HX19) [µg/mL] | MIC [3] [µg/mL] | MIC [4] [µg/mL]
1 | CC1(C)S[C@@H]2C(NC(=O)C(N)c3ccccc3)C(=O)N2[C@H]1C(=O)O (stereo partly drawn) [Ampicillin, 6-(α-aminophenylacetamido)-penicillanic acid] | does not exert any appreciable antimicrobial activity against Pseudomonas | inhibits the growth of various gram-positive and gram-negativebacteria |  |  |  |  |  | 
2 | CCOC(=O)Oc1c(C(=O)N[C@@H](C(=O)N[C@@H]2C(=O)N3[C@@H]2SC(C)(C)[C@@H]3C(=O)O)c2ccccc2)cnc2c1CCC2 [Example 1, D-α-(4-ethoxycarbonyloxy-2,3-cyclopentenopyridine-5-carboxamido)-benzylpenicillin] |  |  | 0.39 (≈ 0.669 µM) | 12.5 (≈ 21.5 µM) | 3.13 (≈ 5.37 µM) | 0.05 (≈ 0.0858 µM) | 6.25 (≈ 10.7 µM) | 6.25 (≈ 10.7 µM)
3 | CC1(C)S[C@@H]2[C@H](NC(=O)[C@H](NC(=O)c3cnc4c(c3O)CCC4)c3ccccc3)C(=O)N2[C@H]1C(=O)O [Example 2, D-α-(4-hydroxy-2,3-cyclopentenopyridine-5-carboxamido)-benzylpenicillin] |  |  | 0.39 (≈ 0.764 µM) | 25 (≈ 49 µM) | 12.5 (≈ 24.5 µM) | 0.39 (≈ 0.764 µM) | 12.5 (≈ 24.5 µM) | 12.5 (≈ 24.5 µM)
4 | CC1(C)S[C@@H]2[C@H](NC(=O)[C@H](NC(=O)c3cnc4c(c3O)CCCC4)c3ccccc3)C(=O)N2[C@H]1C(=O)O [Example 3, D-α-(4-hydroxy-2,3-cyclohexenopyridine-5-carboxamido)-benzylpenicillin] |  |  |  |  | 6.25 (≈ 11.9 µM) | 0.39 (≈ 0.743 µM) |  | 12.5 (≈ 23.8 µM)
5 | CC(=O)c1c(C)ncc(C(=O)N[C@@H](C(=O)N[C@@H]2C(=O)N3[C@@H]2SC(C)(C)[C@@H]3C(=O)O)c2ccccc2)c1O [Example 4, D-α-(3-acetyl-4-hydroxy-2-methyl-pyridine-5-carboxamido)-benzylpenicillin] |  |  | 0.78 (≈ 1.48 µM) | 12.5 (≈ 23.7 µM) | 6.25 (≈ 11.9 µM) | 0.39 (≈ 0.741 µM) | 12.5 (≈ 23.7 µM) | 12.5 (≈ 23.7 µM)
6 | CC(C)(C)C(=O)Oc1c(C(=O)N[C@@H](C(=O)N[C@@H]2C(=O)N3[C@@H]2SC(C)(C)[C@@H]3C(=O)O)c2ccccc2)cnc2c1CCCC2 [Example 5, D-α-(2,3-cyclohexeno-4-pivaloyloxypyridine-5-carboxamido)-benzylpenicillin] |  |  | 0.78 (≈ 1.28 µM) | 12.5 (≈ 20.5 µM) | 6.25 (≈ 10.3 µM) | 0.39 (≈ 0.641 µM) | 6.25 (≈ 10.3 µM) | 12.5 (≈ 20.5 µM)
7 | CCOC(=O)Oc1c(C(=O)N[C@@H](C(=O)N[C@@H]2C(=O)N3[C@@H]2SC(C)(C)[C@@H]3C(=O)O)c2ccccc2)cnc2c1CCCC2 [Example 6, D-α -(4-ethoxycarbonyloxy-2,3-cyclohexenopyridine-5-carboxamido)-benzylpenicillin] |  |  | 0.78 (≈ 1.31 µM) | 12.5 (≈ 20.9 µM) | 6.25 (≈ 10.5 µM) | 0.39 (≈ 0.654 µM) | 6.25 (≈ 10.5 µM) | 12.5 (≈ 20.9 µM)
8 | CC1(C)S[C@@H]2[C@H](NC(=O)[C@H](NC(=O)c3ccnnc3O)c3ccccc3)C(=O)N2[C@H]1C(=O)O [Example 8, D-α-(3-hydroxypyridazine-4-carboxamido)-benzylpenicillin] |  |  |  |  | 6.25 (≈ 13.3 µM) |  |  | 
9 | CC1(C)S[C@@H]2[C@H](NC(=O)[C@H](NC(=O)c3cnccc3O)c3ccc(O)cc3)C(=O)N2[C@H]1C(=O)O [Example 9, D-α-(4-hydroxypyridine-3-carboxamido)-p-hydroxybenzylpenicillin] |  |  | 0.78 (≈ 1.6 µM) |  | 6.25 (≈ 12.8 µM) |  | 100 (≈ 206 µM) | 
10 | CC1(C)S[C@@H]2[C@H](NC(=O)[C@H](NC(=O)c3cccnc3O)c3ccc(O)cc3)C(=O)N2[C@H]1C(=O)O [Example 10, D-α-(2-hydroxypyridine-3-carboxamido)-p-hydroxybenzylpenicillin] |  |  | 1.56 (≈ 3.21 µM) | 12.5 (≈ 25.7 µM) | 12.5 (≈ 25.7 µM) | 0.2 (≈ 0.411 µM) | 100 (≈ 206 µM) | 6.25 (≈ 12.8 µM)
11 | CC1(C)S[C@@H]2[C@H](NC(=O)[C@H](NC(=O)c3cnccc3O)C3=CCC=CC3)C(=O)N2[C@H]1C(=O)O [Example 11, D-α-(4-hydroxypyridine-3-carboxamido)-1,4-cyclohexadienylmethylpenicillin] |  |  | 0.39 (≈ 0.825 µM) | 25 (≈ 52.9 µM) | 12.5 (≈ 26.5 µM) | 0.2 (≈ 0.423 µM) | 12.5 (≈ 26.5 µM) | 6.25 (≈ 13.2 µM)
12 | CC1(C)S[C@@H]2[C@H](NC(=O)C(NC(=O)c3ccnnc3O)C3=CCC=CC3)C(=O)N2[C@H]1C(=O)O (stereo partly drawn) [Example 12] |  |  | 0.2 (≈ 0.422 µM) | 12.5 (≈ 26.4 µM) | 12.5 (≈ 26.4 µM) | 0.05 (≈ 0.106 µM) | 3.13 (≈ 6.61 µM) | 3.13 (≈ 6.61 µM)
13 | CC(C)CC(NC(=O)c1ccnnc1O)C(=O)N[C@@H]1C(=O)N2[C@@H]1SC(C)(C)[C@@H]2C(=O)O (stereo partly drawn) [Example 13] |  |  | 0.39 (≈ 0.864 µM) | 12.5 (≈ 27.7 µM) | 25 (≈ 55.4 µM) | 0.39 (≈ 0.864 µM) | 25 (≈ 55.4 µM) | 12.5 (≈ 27.7 µM)
14 | CC1(C)S[C@@H]2[C@H](NC(=O)C(NC(=O)c3ccnnc3O)c3ccsc3)C(=O)N2[C@H]1C(=O)O (stereo partly drawn) [Example 15] |  |  | 0.39 (≈ 0.817 µM) | 12.5 (≈ 26.2 µM) | 6.25 (≈ 13.1 µM) | 0.05 (≈ 0.105 µM) | 12.5 (≈ 26.2 µM) | 3.13 (≈ 6.55 µM)
15 | CC1(C)S[C@@H]2[C@H](NC(=O)C(NC(=O)c3cnccc3O)c3cnsc3)C(=O)N2[C@H]1C(=O)O (stereo partly drawn) [Example 16] |  |  | 0.78 (≈ 1.63 µM) | 25 (≈ 52.4 µM) | 12.5 (≈ 26.2 µM) | 0.2 (≈ 0.419 µM) | 25 (≈ 52.4 µM) | 6.25 (≈ 13.1 µM)
16 | CC1(C)S[C@@H]2[C@H](NC(=O)C(NC(=O)c3cncnc3O)c3ccsc3)C(=O)N2[C@H]1C(=O)O (stereo partly drawn) [Example 17] |  |  | 0.39 (≈ 0.817 µM) | 25 (≈ 52.4 µM) | 6.25 (≈ 13.1 µM) | 0.05 (≈ 0.105 µM) | 50 (≈ 105 µM) | 3.13 (≈ 6.55 µM)
17 | CC1(C)S[C@@H]2[C@H](NC(=O)C(NC(=O)c3ccnnc3O)c3cccs3)C(=O)N2[C@H]1C(=O)O (stereo partly drawn) [Example 18] |  |  | 0.39 (≈ 0.817 µM) | 12.5 (≈ 26.2 µM) | 6.25 (≈ 13.1 µM) | 0.05 (≈ 0.105 µM) | 12.5 (≈ 26.2 µM) | 3.13 (≈ 6.55 µM)
18 | CC1(C)S[C@@H]2[C@H](NC(=O)C(NC(=O)c3ccnnc3O)c3cnsc3)C(=O)N2[C@H]1C(=O)O (stereo partly drawn) [Example 19] |  |  | 0.39 (≈ 0.815 µM) | 12.5 (≈ 26.1 µM) | 6.25 (≈ 13.1 µM) | 0.05 (≈ 0.104 µM) | 25 (≈ 52.2 µM) | 6.25 (≈ 13.1 µM)
19 | CC1(C)S[C@@H]2[C@H](NC(=O)C(NC(=O)c3cnc4c(c3O)CCCCC4)c3ccccc3)C(=O)N2[C@H]1C(=O)O (stereo partly drawn) [Example 20] |  |  | 0.78 (≈ 1.45 µM) | 25 (≈ 46.4 µM) | 6.25 (≈ 11.6 µM) | 0.78 (≈ 1.45 µM) | 3.13 (≈ 5.81 µM) | 12.5 (≈ 23.2 µM)
20 | CCOC(=O)Oc1c(C(=O)NC(C(=O)N[C@@H]2C(=O)N3[C@@H]2SC(C)(C)[C@@H]3C(=O)O)c2ccccc2)cnc2c1CCCCC2 (stereo partly drawn) [Example 21] |  |  | 0.78 (≈ 1.28 µM) | 25 (≈ 40.9 µM) | 6.25 (≈ 10.2 µM) | 0.78 (≈ 1.28 µM) | 3.13 (≈ 5.13 µM) | 25 (≈ 40.9 µM)
21 | Cc1ncc(C(=O)NC(C(=O)N[C@@H]2C(=O)N3[C@@H]2SC(C)(C)[C@@H]3C(=O)O)c2ccccc2)c(O)c1C(C)O (stereo partly drawn) [Example 22] |  |  | 0.78 (≈ 1.48 µM) | 25 (≈ 47.3 µM) | 12.5 (≈ 23.6 µM) | 0.39 (≈ 0.738 µM) | 12.5 (≈ 23.6 µM) | 6.25 (≈ 11.8 µM)
22 | Cc1cc(C(=O)NC(C(=O)N[C@@H]2C(=O)N3[C@@H]2SC(C)(C)[C@@H]3C(=O)O)c2ccccc2)c(O)nn1 (stereo partly drawn) [Example 24] |  |  | 0.39 (≈ 0.803 µM) | 12.5 (≈ 25.7 µM) | 50 (≈ 103 µM) | 0.39 (≈ 0.803 µM) | 25 (≈ 51.5 µM) | 3.13 (≈ 6.45 µM)
23 | CC1(C)S[C@@H]2[C@H](NC(=O)C(NC(=O)c3cnccc3O)c3ccccc3)C(=O)N2[C@H]1C(=O)O (stereo partly drawn) [Example 25] |  |  | 0.78 (≈ 1.66 µM) |  | 12.5 (≈ 26.6 µM) | 0.2 (≈ 0.425 µM) | 25 (≈ 53.1 µM) | 6.23 (≈ 13.2 µM)
24 | CSc1ncc(C(=O)NC(C(=O)N[C@@H]2C(=O)N3[C@@H]2SC(C)(C)[C@@H]3C(=O)O)c2ccccc2)c(O)n1 (stereo partly drawn) [Example 27] |  |  | 0.78 (≈ 1.51 µM) | 50 (≈ 96.6 µM) | 12.5 (≈ 24.2 µM) | 0.1 (≈ 0.193 µM) | 50 (≈ 96.6 µM) | 6.25 (≈ 12.1 µM)
25 | CC1(C)S[C@@H]2[C@H](NC(=O)C(NC(=O)c3ccccn3)c3ccccc3)C(=O)N2[C@H]1C(=O)O (stereo partly drawn) [I, reference compound] |  |  |  |  | 50 (≈ 110 µM) |  |  | 
26 | CC1(C)S[C@@H]2[C@H](NC(=O)C(NC(=O)c3cccnc3)c3ccccc3)C(=O)N2[C@H]1C(=O)O (stereo partly drawn) [II, reference compound] |  |  | 0.78 (≈ 1.72 µM) | 100 (≈ 220 µM) | 100 (≈ 220 µM) | 0.78 (≈ 1.72 µM) | 100 (≈ 220 µM) | 50 (≈ 110 µM)
